Results from PubChem BioAssay AID2060893 (Molecular Pharmacology Branch, DTP, NCI, 2025).
pIC50: −log10 of the molar value. One block for each molecule: values may come before it.

System: K86415-001-R-J1-PDC complex spheroids, viability
Test: Anticancer human tumor K86415-001-R-J1-PDC patient-derived lung adenocarcinoma cell line growth inhibition [RAS]
Conditions: for pIC50: curve of first compound; for viability, T/C: stronger effect = lower value
Procedure, shortened: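 Agents were tested in combination matrices in half-log decrements from a top concentration at or near clinical Cmax (10 microM if undetermined). Targets were multi-cell spheroids of tumour lines plus HUVEC and MSC stromal cells.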

[1] = second compound 0.00316 µM, first compound 0.0316 µM
[2] = second compound 0.00316 µM, first compound 0.1 µM
[3] = second compound 0.00316 µM, first compound 0.316 µM
[4] = second compound 0.00316 µM, first compound 1 µM
[5] = second compound 0.00316 µM, first compound 3.16 µM
[6] = second compound 0.00316 µM, first compound 10 µM
[7] = second compound 0.01 µM, first compound 0.0316 µM
[8] = second compound 0.01 µM, first compound 0.1 µM
[9] = second compound 0.01 µM, first compound 0.316 µM
[10] = second compound 0.01 µM, first compound 1 µM
[11] = second compound 0.01 µM, first compound 3.16 µM
[12] = second compound 0.01 µM, first compound 10 µM
[13] = second compound 0.0316 µM, first compound 0.0316 µM
[14] = second compound 0.0316 µM, first compound 0.1 µM
[15] = second compound 0.0316 µM, first compound 0.316 µM
[16] = second compound 0.0316 µM, first compound 1 µM
[17] = second compound 0.0316 µM, first compound 3.16 µM
[18] = second compound 0.0316 µM, first compound 10 µM
[19] = second compound 0.1 µM, first compound 0.0316 µM
[20] = second compound 0.1 µM, first compound 0.1 µM
[21] = second compound 0.1 µM, first compound 0.316 µM
[22] = second compound 0.1 µM, first compound 1 µM
[23] = second compound 0.1 µM, first compound 3.16 µM
[24] = second compound 0.1 µM, first compound 10 µM
[25] = second compound 0.316 µM, first compound 0.0316 µM
[26] = second compound 0.316 µM, first compound 0.1 µM
[27] = second compound 0.316 µM, first compound 0.316 µM
[28] = second compound 0.316 µM, first compound 1 µM
[29] = second compound 0.316 µM, first compound 3.16 µM
[30] = second compound 0.316 µM, first compound 10 µM
[31] = second compound 1 µM, first compound 0.0316 µM
[32] = second compound 1 µM, first compound 0.1 µM
[33] = second compound 1 µM, first compound 0.316 µM
[34] = second compound 1 µM, first compound 1 µM
[35] = second compound 1 µM, first compound 3.16 µM
[36] = second compound 1 µM, first compound 10 µM
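Further: spheroids exposed to agents for seven days before readout.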

- pIC50 (second compound 0.00316 µM): > 7.50
- pIC50 (second compound 0.01 µM): > 7.50
- pIC50 (second compound 0.0316 µM): > 7.50
- pIC50 (second compound 0.1 µM): > 7.50
- pIC50 (second compound 0.316 µM): > 7.50
- pIC50 (second compound 1 µM): > 7.50
SMILES: Cc1nc(N2CCC3(CC2)COC(C)C3N)c(CO)nc1Sc1ccnc(N)c1Cl (stereo unspecified) + C=CC(=O)N1CCN(c2nc(OCC3CCCN3C)nc3c(F)c(-c4nc(N)cc(C)c4C(F)(F)F)c(Cl)cc23)C(C)C1
- viability, T/C [1]: 11.5%
- viability, T/C [2]: 8.95%
- viability, T/C [3]: 6.72%
- viability, T/C [4]: 5.03%
- viability, T/C [5]: 3.59%
- viability, T/C [6]: 4.75%
- viability, T/C [7]: 12.1%
- viability, T/C [8]: 8.08%
- viability, T/C [9]: 5.96%
- viability, T/C [10]: 4.7%
- viability, T/C [11]: 4.74%
- viability, T/C [12]: 5.17%
- viability, T/C [13]: 9.15%
- viability, T/C [14]: 6.95%
- viability, T/C [15]: 4.4%
- viability, T/C [16]: 3.81%
- viability, T/C [17]: 3.74%
- viability, T/C [18]: 3.64%
- viability, T/C [19]: 8.22%
- viability, T/C [20]: 5.86%
- viability, T/C [21]: 5.7%
- viability, T/C [22]: 3.75%
- viability, T/C [23]: 4.37%
- viability, T/C [24]: 3.87%
- viability, T/C [25]: 7.37%
- viability, T/C [26]: 6.35%
- viability, T/C [27]: 4.21%
- viability, T/C [28]: 4.09%
- viability, T/C [29]: 4.08%
- viability, T/C [30]: 3.28%
- viability, T/C [31]: 7.46%
- viability, T/C [32]: 7.12%
- viability, T/C [33]: 6.04%
- viability, T/C [34]: 4.71%
- viability, T/C [35]: 4.06%
- viability, T/C [36]: 4.08%

- pIC50 (second compound 0.00316 µM): > 7.50
- pIC50 (second compound 0.01 µM): > 7.50
- pIC50 (second compound 0.0316 µM): > 7.50
- pIC50 (second compound 0.1 µM): > 7.50
- pIC50 (second compound 0.316 µM): > 7.50
- pIC50 (second compound 1 µM): > 7.50
SMILES: NC1c2ccccc2OC12CCN(c1cnc3c(N4CCCc5ncccc54)n[nH]c3n1)CC2 (stereo unspecified) + C=CC(=O)N1CCN(c2nc(OCC3CCCN3C)nc3c(F)c(-c4nc(N)cc(C)c4C(F)(F)F)c(Cl)cc23)C(C)C1
- viability, T/C [1]: 7.58%
- viability, T/C [2]: 6.46%
- viability, T/C [3]: 4.66%
- viability, T/C [4]: 5.77%
- viability, T/C [5]: 4.88%
- viability, T/C [6]: 5.36%
- viability, T/C [7]: 7.19%
- viability, T/C [8]: 5.33%
- viability, T/C [9]: 4.69%
- viability, T/C [10]: 4.12%
- viability, T/C [11]: 4.26%
- viability, T/C [12]: 4.5%
- viability, T/C [13]: 6.59%
- viability, T/C [14]: 6.76%
- viability, T/C [15]: 4.64%
- viability, T/C [16]: 4.27%
- viability, T/C [17]: 4.76%
- viability, T/C [18]: 5.5%
- viability, T/C [19]: 5.65%
- viability, T/C [20]: 6.03%
- viability, T/C [21]: 4.11%
- viability, T/C [22]: 3.86%
- viability, T/C [23]: 4.33%
- viability, T/C [24]: 4.71%
- viability, T/C [25]: 6.32%
- viability, T/C [26]: 6.11%
- viability, T/C [27]: 4.53%
- viability, T/C [28]: 4.12%
- viability, T/C [29]: 6.47%
- viability, T/C [30]: 5.1%
- viability, T/C [31]: 5.95%
- viability, T/C [32]: 6.16%
- viability, T/C [33]: 5%
- viability, T/C [34]: 4.63%
- viability, T/C [35]: 5.74%
- viability, T/C [36]: 5.91%

- pIC50 (second compound 0.00316 µM): > 8.50
- pIC50 (second compound 0.01 µM): > 8.50
- pIC50 (second compound 0.0316 µM): > 8.50
- pIC50 (second compound 0.1 µM): > 8.50
- pIC50 (second compound 0.316 µM): > 8.50
- pIC50 (second compound 1 µM): > 8.50
SMILES: Nc1ccn(C2OC(CO)C(O)C2(F)F)c(=O)n1 (stereo unspecified) + C=CC(=O)N1CCN(c2nc(OCC3CCCN3C)nc3c(F)c(-c4nc(N)cc(C)c4C(F)(F)F)c(Cl)cc23)C(C)C1
- viability, T/C (second compound 0.00316 µM, first compound 0.00316 µM): 18.1%
- viability, T/C (second compound 0.00316 µM, first compound 0.01 µM): 16.6%
- viability, T/C [1]: 14.9%
- viability, T/C [2]: 14.7%
- viability, T/C [3]: 17.8%
- viability, T/C [4]: 17.2%
- viability, T/C (second compound 0.01 µM, first compound 0.00316 µM): 16.1%
- viability, T/C (second compound 0.01 µM, first compound 0.01 µM): 12.8%
- viability, T/C [7]: 9.45%
- viability, T/C [8]: 11.5%
- viability, T/C [9]: 9.75%
- viability, T/C [10]: 11.1%
- viability, T/C (second compound 0.0316 µM, first compound 0.00316 µM): 11%
- viability, T/C (second compound 0.0316 µM, first compound 0.01 µM): 12.7%
- viability, T/C [13]: 10.5%
- viability, T/C [14]: 9.28%
- viability, T/C [15]: 11%
- viability, T/C [16]: 10.4%
- viability, T/C (second compound 0.1 µM, first compound 0.00316 µM): 9.91%
- viability, T/C (second compound 0.1 µM, first compound 0.01 µM): 9.83%
- viability, T/C [19]: 9.05%
- viability, T/C [20]: 9.1%
- viability, T/C [21]: 11.7%
- viability, T/C [22]: 11.4%
- viability, T/C (second compound 0.316 µM, first compound 0.00316 µM): 11%
- viability, T/C (second compound 0.316 µM, first compound 0.01 µM): 10.5%
- viability, T/C [25]: 11%
- viability, T/C [26]: 8.77%
- viability, T/C [27]: 11.1%
- viability, T/C [28]: 8.63%
- viability, T/C (second compound 1 µM, first compound 0.00316 µM): 10.2%
- viability, T/C (second compound 1 µM, first compound 0.01 µM): 11.9%
- viability, T/C [31]: 10.3%
- viability, T/C [32]: 11.7%
- viability, T/C [33]: 11.7%
- viability, T/C [34]: 8.61%
